Data from patent US12257224B2, “Methods of administration for highly water-soluble salts of a short acting phenylalkylamine calcium channel blocker” (Milestone Pharmaceuticals Inc., priority 2021, dated 2025).
Read-outs that look alike come from different tables or passages of the source.

Legend:
[1] = Procedure: Randomized, double-blind, placebo-controlled, ethnobridging PK/PD study, 35, 70 and 105 mg doses were evaluated.
[2] = test system: induced PSVT; test: Phase 2 study: termination of induced PSVT; type: in vivo, human; conditions: for mean reduction in systolic blood pressure (SBP) versus baseline: between 4 and 10 minutes after administration
Procedure: In a Phase 2 study, four doses (35, 70, 105, and 140 mg) were tested.

[3] = test system: PSVT; test: Example 5: heart rate during PSVT prior to conversion to sinus rhythm; type: in vivo, human
Excerpt: Each PSVT was documented by an ambulatory cardiac monitoring system that was placed on the chest after symptoms began. Baseline (average of four values before drug administration), and every minute of heart rate data were captured from baseline until one minute before the PSVT was converted to sinus rhythm. […]

[4] = Formation of concentrated aqueous acid addition salt solutions of compound I; type: physicochemical; conditions: free base treated with methanesulfonic acid or acetic acid
[5] = Phase 1 study (doses up to 140 mg; PR interval, MFD, TEAEs); type: in vivo, human
[6] = Example 7: PK analysis, serum concentration after one vs two 70 mg nasal doses; type: in vivo, human; design: serum concentration, Median: unit not given here; conditions: for concentration at 13 min / concentration at 15 min: human, serum, other: nasal
Procedure: The serum concentration of compound I over time from the first administration for the study arm with a single 70 mg dose administration of compound I was compared with the study arm with two 70 mg dose administrations of compound I. The second 70 mg dose of compound I was administered approximately 10 minutes after the first dose.

[7] = patients who converted to sinus rhythm
[8] = one 70 mg nasal dose, Time 10.5
[9] = one 70 mg nasal dose, Time 11.5
[10] = one 70 mg nasal dose, Time 1450
[11] = two 70 mg nasal doses, second approximately 10 minutes after first, Time 7
[12] = two 70 mg nasal doses, second approximately 10 minutes after first, Time 9
[13] = two 70 mg nasal doses, second approximately 10 minutes after first, Time 10.5
[14] = two 70 mg nasal doses, second approximately 10 minutes after first, Time 11.5

mean SBP ([2]; doses of 35 and 70 mg): did not drop
concentration at 13 min ([6]; two 70 mg nasal doses, second approximately 10 minutes after first, Time 13, read-out: serum concentration, Max): 320 ng/mL
concentration at 13 min ([6]; two 70 mg nasal doses, second approximately 10 minutes after first, Time 13, read-out: serum concentration, Mean): 115 ng/mL
concentration at 13 min ([6]; two 70 mg nasal doses, second approximately 10 minutes after first, Time 13, read-out: serum concentration, Median): 93.6 ng/mL
concentration at 13 min ([6]; two 70 mg nasal doses, second approximately 10 minutes after first, Time 13, read-out: serum concentration, Min): 22.5 ng/mL
concentration at 15 min ([6]; two 70 mg nasal doses, second approximately 10 minutes after first, Time 15, read-out: serum concentration, Max): 317 ng/mL
concentration at 15 min ([6]; two 70 mg nasal doses, second approximately 10 minutes after first, Time 15, read-out: serum concentration, Mean): 110 ng/mL
concentration at 15 min ([6]; two 70 mg nasal doses, second approximately 10 minutes after first, Time 15, read-out: serum concentration, Median): 76.9 ng/mL
concentration at 15 min ([6]; two 70 mg nasal doses, second approximately 10 minutes after first, Time 15, read-out: serum concentration, Min): 25.2 ng/mL
serum concentration, Max ([6]; one 70 mg nasal dose, Time 0): 0 ng/mL
serum concentration, Mean ([6]; one 70 mg nasal dose, Time 0): 0.00
serum concentration, Median ([6]; one 70 mg nasal dose, Time 0): 0.00
serum concentration, Min ([6]; one 70 mg nasal dose, Time 0): 0.00
serum concentration, Max ([6]; one 70 mg nasal dose, Time 0.5): 0 ng/mL
serum concentration, Mean ([6]; one 70 mg nasal dose, Time 0.5): 0.00
serum concentration, Median ([6]; one 70 mg nasal dose, Time 0.5): 0.00
serum concentration, Min ([6]; one 70 mg nasal dose, Time 0.5): 0.00
serum concentration, Mean ([6]; one 70 mg nasal dose, Time 1.5): 11.79
serum concentration, Median ([6]; one 70 mg nasal dose, Time 1.5): 5.20
serum concentration, Min ([6]; one 70 mg nasal dose, Time 1.5): 0.00
serum concentration, Max ([6]; one 70 mg nasal dose, Time 1.5, in ng/mL): 56.12
serum concentration, Mean ([6]; one 70 mg nasal dose, Time 3): 62.82
serum concentration, Median ([6]; one 70 mg nasal dose, Time 3): 32.60
serum concentration, Min ([6]; one 70 mg nasal dose, Time 3): 11.45
serum concentration, Max ([6]; one 70 mg nasal dose, Time 3, in ng/mL): 205.27
serum concentration, Mean ([6]; one 70 mg nasal dose, Time 5): 90.64
serum concentration, Median ([6]; one 70 mg nasal dose, Time 5): 67.70
serum concentration, Min ([6]; one 70 mg nasal dose, Time 5): 21.18
serum concentration, Max ([6]; one 70 mg nasal dose, Time 5, in ng/mL): 191.63
serum concentration, Mean ([6]; one 70 mg nasal dose, Time 7): 83.04
serum concentration, Median ([6]; one 70 mg nasal dose, Time 7): 74.22
serum concentration, Min ([6]; one 70 mg nasal dose, Time 7): 28.61
serum concentration, Max ([6]; one 70 mg nasal dose, Time 7, in ng/mL): 152.59
serum concentration, Mean ([6]; one 70 mg nasal dose, Time 9): 73.39
serum concentration, Median ([6]; one 70 mg nasal dose, Time 9): 69.68
serum concentration, Min ([6]; one 70 mg nasal dose, Time 9): 25.94
serum concentration, Max ([6]; one 70 mg nasal dose, Time 9, in ng/mL): 130.50
serum concentration, Mean [6, 8]: 67.95
serum concentration, Median [6, 8]: 59.91
serum concentration, Min [6, 8]: 30.24
serum concentration, Max ([6]; one 70 mg nasal dose, Time 10.5, in ng/mL): 121.45
serum concentration, Mean [6, 9]: 66.91
serum concentration, Median [6, 9]: 59.09
serum concentration, Min [6, 9]: 31.61
serum concentration, Max ([6]; one 70 mg nasal dose, Time 11.5, in ng/mL): 119.67
serum concentration, Mean ([6]; one 70 mg nasal dose, Time 13): 62.34
serum concentration, Median ([6]; one 70 mg nasal dose, Time 13): 59.07
serum concentration, Min ([6]; one 70 mg nasal dose, Time 13): 29.29
serum concentration, Max ([6]; one 70 mg nasal dose, Time 13, in ng/mL): 103.40
serum concentration, Mean ([6]; one 70 mg nasal dose, Time 15): 57.44
serum concentration, Median ([6]; one 70 mg nasal dose, Time 15): 52.11
serum concentration, Min ([6]; one 70 mg nasal dose, Time 15): 26.98
serum concentration, Max ([6]; one 70 mg nasal dose, Time 15, in ng/mL): 111.44
serum concentration, Mean ([6]; one 70 mg nasal dose, Time 17): 50.32
serum concentration, Median ([6]; one 70 mg nasal dose, Time 17): 41.80
serum concentration, Min ([6]; one 70 mg nasal dose, Time 17): 26.92
serum concentration, Max ([6]; one 70 mg nasal dose, Time 17, in ng/mL): 90.05
serum concentration, Mean ([6]; one 70 mg nasal dose, Time 20): 49.43
serum concentration, Median ([6]; one 70 mg nasal dose, Time 20): 46.51
serum concentration, Min ([6]; one 70 mg nasal dose, Time 20): 22.74
serum concentration, Max ([6]; one 70 mg nasal dose, Time 20, in ng/mL): 80.55
serum concentration, Mean ([6]; one 70 mg nasal dose, Time 25): 41.86
serum concentration, Median ([6]; one 70 mg nasal dose, Time 25): 42.30
serum concentration, Min ([6]; one 70 mg nasal dose, Time 25): 19.26
serum concentration, Max ([6]; one 70 mg nasal dose, Time 25, in ng/mL): 66.12
serum concentration, Mean ([6]; one 70 mg nasal dose, Time 35): 33.35
serum concentration, Median ([6]; one 70 mg nasal dose, Time 35): 36.90
serum concentration, Min ([6]; one 70 mg nasal dose, Time 35): 15.09
serum concentration, Max ([6]; one 70 mg nasal dose, Time 35, in ng/mL): 51.52
serum concentration, Mean ([6]; one 70 mg nasal dose, Time 60): 20.41
serum concentration, Median ([6]; one 70 mg nasal dose, Time 60): 22.06
serum concentration, Min ([6]; one 70 mg nasal dose, Time 60): 8.89
serum concentration, Max ([6]; one 70 mg nasal dose, Time 60, in ng/mL): 31.10
serum concentration, Mean ([6]; one 70 mg nasal dose, Time 100): 13.91
serum concentration, Median ([6]; one 70 mg nasal dose, Time 100): 12.75
serum concentration, Min ([6]; one 70 mg nasal dose, Time 100): 6.20
serum concentration, Max ([6]; one 70 mg nasal dose, Time 100, in ng/mL): 23.24
serum concentration, Mean ([6]; one 70 mg nasal dose, Time 240): 5.90
serum concentration, Median ([6]; one 70 mg nasal dose, Time 240): 5.91
serum concentration, Min ([6]; one 70 mg nasal dose, Time 240): 1.48
serum concentration, Max ([6]; one 70 mg nasal dose, Time 240, in ng/mL): 11.01
serum concentration, Max ([6]; one 70 mg nasal dose, Time 370): 6.08 ng/mL
serum concentration, Mean ([6]; one 70 mg nasal dose, Time 370): 2.49
serum concentration, Median ([6]; one 70 mg nasal dose, Time 370): 2.51
serum concentration, Min ([6]; one 70 mg nasal dose, Time 370): 0.00
serum concentration, Max ([6]; one 70 mg nasal dose, Time 730): 3.17 ng/mL
serum concentration, Mean ([6]; one 70 mg nasal dose, Time 730): 0.76
serum concentration, Median ([6]; one 70 mg nasal dose, Time 730): 0.00
serum concentration, Min ([6]; one 70 mg nasal dose, Time 730): 0.00
serum concentration, Max [6, 10]: 1.2 ng/mL
serum concentration, Mean [6, 10]: 0.10
serum concentration, Median [6, 10]: 0.00
serum concentration, Min [6, 10]: 0.00
serum concentration, Mean [6, 11]: 85.77
serum concentration, Median [6, 11]: 91.42
serum concentration, Min [6, 11]: 17.16
serum concentration, Max ([6]; two 70 mg nasal doses, second approximately 10 minutes after first, Time 7, in ng/mL): 180.76
serum concentration, Mean [6, 12]: 73.20
serum concentration, Median [6, 12]: 77.41
serum concentration, Min [6, 12]: 15.37
serum concentration, Max ([6]; two 70 mg nasal doses, second approximately 10 minutes after first, Time 9, in ng/mL): 144.91
serum concentration, Mean [6, 13]: 65.97
serum concentration, Median [6, 13]: 65.18
serum concentration, Min [6, 13]: 14.49
serum concentration, Max ([6]; two 70 mg nasal doses, second approximately 10 minutes after first, Time 10.5, in ng/mL): 143.87
serum concentration, Mean [6, 14]: 96.77
serum concentration, Median [6, 14]: 102.11
serum concentration, Min [6, 14]: 15.52
serum concentration, Max ([6]; two 70 mg nasal doses, second approximately 10 minutes after first, Time 11.5, in ng/mL): 215.35
Structure (SMILES): COC(=O)c1cccc(CCN(C)CCCC(C#N)(c2ccc(OC)c(OC)c2)C(C)C)c1 (stereo not shown) [compound I, methyl 3-(2-((4-cyano-4-(3,4-dimethoxyphenyl)-5-methylhexyl)(methyl)amino)ethyl)benzoate]
time at which pharmacodynamic effect began to decrease ([1]; 35, 70 and 105 mg doses): 15 min
time to increase of PR interval and HR ([1]; 35, 70 and 105 mg doses): ≤ 10 min
duration of pharmacodynamic effect ([1]; duration of PR prolongation exceeding 10% from baseline): 30 to 45 min
exposure, dose proportionality ([1]; human, in vivo): increased in a dose proportional manner between 35 and 70 mg but not between the 70 and 105 mg doses
overall success rate ([2]; 35 mg, at 15 minutes): 65%
treatment effect compared to placebo ([2]; 35 mg, at 15 minutes): 30%
mean reduction in systolic blood pressure (SBP) versus baseline ([2]; 105 mg): 11.4%
mean reduction in systolic blood pressure (SBP) versus baseline ([2]; 140 mg): 15.6%
termination of induced PSVT within 15 minutes of dosing ([2]; 70, 105 and 140 mg vs placebo): statistically significantly superior compared with placebo
time to conversion of PSVT to sinus rhythm (SR) ([2]; 70, 105 and 140 mg vs placebo): shorter
tolerability ([2]; NS 70 mg): well tolerated
mean change in heart rate from baseline (±SE) ([3]; 70 mg, 3 min, during PSVT): −10 bpm
mean change in heart rate from baseline (±SE) ([3]; 70 mg, 10 min, during PSVT): −16 bpm
mean change in heart rate from baseline (±SE) ([3]; 70 mg, 30 min, during PSVT): −14 bpm
mean change in heart rate from baseline (±SE) ([3]; 70 mg, 40 min, during PSVT): −13 bpm
persistence of decrease in heart rate ([3]; 70 mg, during PSVT): sustained through the 60-minute observation period
mean change in heart rate from baseline (±SE) ([3]; 70 mg, within the first minute, during PSVT): −5 bpm
maximal change from baseline in heart rate, converters to sinus rhythm in <30 minutes versus >30 minutes [3, 7]: significant difference
maximal change from baseline in heart rate, converters to sinus rhythm in <60 minutes versus >60 minutes [3, 7]: significant difference
salt solution concentration attainable [4]: concentrations sufficient for nasal administration
PR interval of the ECG ([5]; 4 highest doses tested: 30, 60, 105 and 140 mg): produced an increase in the PR interval of the ECG
Treatment Emergent Adverse Effects (TEAEs) ([5]; doses higher than 70 mg): an increase in Treatment Emergent Adverse Effects (TEAEs), mainly related to nasal irritation
drug exposure and PR interval ([5]; two 30 mg doses 10 minutes apart vs single 30 mg dose): drug exposure and PR interval increased and remained elevated for a longer period
serum concentration, two 70 mg doses vs single 70 mg dose ([6]; second dose approximately 10 minutes after the first): raised the serum concentration of compound I above that observed with a single 70 mg dose
